Laboratory results as given in ChEMBL document CHEMBL1126639, “Centrally acting serotonergic and dopaminergic agents. 2. Synthesis and structure-activity relationships of 2,3,3a,4,9,9a-hexahydro-1H-benz[f]indole derivatives” (J Med Chem, 1993).

How the values were obtained:
[1] = system: Mus musculus; assay: Time of effect in the isolation-induced aggression behavioral assay in the mouse when a dose of 11 micro mol/kg is administered intraperitoneally; assay type: functional
[2] = system: Mus musculus; assay: Time of effect in the isolation-induced aggression behavioral assay in the mouse when a dose of 36 micro mol/kg is administered perorally; assay type: functional
[3] = system: Rattus norvegicus; assay: Inhibition of firing rates of dopaminergic neurons in the substantia nigra pars compacta by intravenous injection in rats; assay type: functional
[4] = system: Mus musculus; assay: Time of effect in the face-to-face behavioral assay in the mouse when a dose of 11 micro mol/kg is administered perorally; assay type: functional
[5] = system: Mus musculus; assay: Time of effect in the isolation-induced aggression behavioral assay in the mouse when a dose of 0.0 micro mol/kg is administered intraperitoneally; assay type: functional
[6] = system: Mus musculus; assay: Time of effect in the face-to-face behavioral assay in the mouse when a dose of 36 micro mol/kg is administered perorally; assay type: functional
[7] = system: Mus musculus; assay: Time of effect in the isolation-induced aggression behavioral assay in the mouse when a dose of 3.6 micro mol/kg is administered perorally; assay type: functional
[8] = system: Rattus norvegicus; assay: Effect on the synthesis rates of serotonin (5-HTP accumulation) in the rat ventral limbic brain region 10.7 umol/kg.; assay type: functional, Limbic system
[9] = system: Rattus norvegicus; assay: Inhibition of firing rates of serotonergic neurons in the dorsal raphe nucleus by intravenous injection in rats; assay type: functional; conditions: Rattus norvegicus, Dorsal raphe nucleus, iv; read-out: ED50
[10] = system: Mus musculus; assay: Time of effect in the isolation-induced aggression behavioral assay in the mouse when a dose of 36 micro mol/kg is administered intraperitoneally; assay type: functional
[11] = biological target: D(2) dopamine receptor (Rattus norvegicus, UniProt P61169); assay: Binding affinity for [3H]raclopride-labeled dopamine receptor D2 in rat striatum; assay type: tissue-based
D(2) dopamine receptor (Rattus norvegicus, UniProt P61169), sequence (P61169 whole entry): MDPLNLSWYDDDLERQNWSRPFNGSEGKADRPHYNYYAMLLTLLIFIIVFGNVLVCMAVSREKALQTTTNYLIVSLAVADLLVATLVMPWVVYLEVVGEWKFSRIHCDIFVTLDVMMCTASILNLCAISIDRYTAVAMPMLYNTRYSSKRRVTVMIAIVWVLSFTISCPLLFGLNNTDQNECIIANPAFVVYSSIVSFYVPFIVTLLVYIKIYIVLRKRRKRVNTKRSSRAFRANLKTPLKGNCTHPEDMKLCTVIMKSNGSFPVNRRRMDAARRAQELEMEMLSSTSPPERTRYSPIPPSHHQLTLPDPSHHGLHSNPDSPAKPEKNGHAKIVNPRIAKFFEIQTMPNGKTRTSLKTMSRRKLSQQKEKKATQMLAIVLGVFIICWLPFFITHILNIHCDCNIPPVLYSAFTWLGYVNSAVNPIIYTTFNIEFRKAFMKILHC

[12] = system: Rattus norvegicus; assay: Effect on the synthesis rates of dopamine (DOPA accumulation) in the rat ventral limbic brain region at 10.7 uM/kg.; assay type: functional, Limbic system
[13] = system: Mus musculus; assay: Time of effect in the face-to-face behavioral assay in the mouse when a dose of 0.0 micro mol/kg is administered perorally; assay type: functional
[14] = system: Mus musculus; assay: Time of effect in the isolation-induced aggression behavioral assay in the mouse when a dose of 11 micro mol/kg is administered perorally; assay type: functional
[15] = system: Mus musculus; assay: Antagonism of apomorphine in reserpinized mice when a dose of 38 micro mol/kg is administered intraperitoneally; assay type: functional
[16] = system: Mus musculus; assay: Antagonism of apomorphine for 0-10 minutes in reserpinized mice when a dose of 3.8 micro mol/kg is administered intraperitoneally; assay type: functional
[17] = system: Mus musculus; assay: Antagonism of apomorphine for 10-20 minutes in reserpinized mice when a dose of 3.8 micro mol/kg is administered intraperitoneally; assay type: functional
[18] = system: Mus musculus; assay: Antagonism of apomorphine for 10-20 minutes in reserpinized mice when a dose of 38 micro mol/kg is administered intraperitoneally; assay type: functional
[19] = system: Mus musculus; assay: Antagonism of apomorphine in reserpinized mice when a dose of 3.8 micro mol/kg is administered intraperitoneally (**,p<0.10); assay type: functional
[20] = system: Mus musculus; assay: Ability to stimulate dopaminergic systems by effect on locomotor activity in reserpinized mice when a dose of 3.8 micro mol/kg is administered intraperitoneally; assay type: functional
[21] = biological target: D(2) dopamine receptor (Homo sapiens, UniProt P14416); assay: Binding affinity against [3H]U-86,170-labeled dopamine receptor D2 in cloned CHO cells; assay type: cell-based
D(2) dopamine receptor (Homo sapiens, UniProt P14416), sequence (P14416 whole entry): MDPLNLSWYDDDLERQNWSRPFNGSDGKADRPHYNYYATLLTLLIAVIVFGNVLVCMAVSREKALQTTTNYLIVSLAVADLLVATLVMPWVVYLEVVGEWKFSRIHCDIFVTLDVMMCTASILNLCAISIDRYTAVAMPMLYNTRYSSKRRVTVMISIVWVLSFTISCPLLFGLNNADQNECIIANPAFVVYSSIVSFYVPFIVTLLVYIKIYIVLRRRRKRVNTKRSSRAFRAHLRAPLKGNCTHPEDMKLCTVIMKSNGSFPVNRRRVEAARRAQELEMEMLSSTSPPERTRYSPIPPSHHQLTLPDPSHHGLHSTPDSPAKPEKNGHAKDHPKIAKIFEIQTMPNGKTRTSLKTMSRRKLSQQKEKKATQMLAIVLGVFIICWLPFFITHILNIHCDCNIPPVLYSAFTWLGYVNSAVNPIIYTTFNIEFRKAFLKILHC

[22] = system: Mus musculus; assay: Antagonism of apomorphine for 0-10 minutes in reserpinized mice when a dose of 0.4 micro mol/kg is administered intraperitoneally; assay type: functional
[23] = system: Mus musculus; assay: Ability to stimulate dopaminergic systems by effect on locomotor activity in reserpinized mice when a dose of 38 micro mol/kg is administered intraperitoneally; assay type: functional
[24] = system: Mus musculus; assay: Ability to stimulate dopaminergic systems by effect on locomotor activity in reserpinized mice when a dose of 0.4 micro mol/kg is administered intraperitoneally; assay type: functional
[25] = system: Mus musculus; assay: Antagonism of apomorphine in reserpinized mice when a dose of 0.4 micro mol/kg is administered intraperitoneally; assay type: functional
[26] = system: Rattus norvegicus; assay: Inhibition of firing rates of dopaminergic neurons in the substantia nigra pars compacta by intravenous injection in rats.; assay type: functional
[27] = system: Mus musculus; assay: Antagonism of apomorphine for 10-20 minutes in reserpinized mice when a dose of 0.4 micro mol/kg is administered intraperitoneally; assay type: functional
[28] = system: Mus musculus; assay: Antagonism of apomorphine for 0-10 minutes in reserpinized mice when a dose of 38 micro mol/kg is administered intraperitoneally; assay type: functional

Q: With `C=CCN1CC[C@H]2Cc3c(cccc3OC)C[C@@H]21` as the molecule, how does the Time [1] read?
A: 46 s

Q: What about the Time [2] of the same molecule?
A: 219 s

Q: What about the ED50 [3] of the same molecule?
A: 4.75 µmol/kg

Q: What about the Time [4] of the same molecule?
A: 0.7 s

Q: And the Time [5]?
A: 5 s

Q: And the Time [6]?
A: 0.9 s

Q: And the Time [7]?
A: 36 s

Q: What about the Control [8] of the same molecule?
A: 4%

Q: And the ED50 [9]?
A: 3.97 µmol/kg

Q: And the Time [10]?
A: 83 s

Q: What about the Ki [11] of the same molecule?
A: > 1000 nM

Q: And the Control [12]?
A: 29%

Q: What about the Time [13] of the same molecule?
A: 0.3 s

Q: What about the Time [14] of the same molecule?
A: 63 s

Q: Which Locomotor activity [15] does the source give for `C=CCN1CC[C@@H]2Cc3c(O)cccc3C[C@H]21` here?
A: 103

Q: And the Locomotor activity [16]?
A: 23

Q: What about the Locomotor activity [17] of the same molecule?
A: 29

Q: What about the Locomotor activity [18] of the same molecule?
A: 34

Q: And the Locomotor activity [19]?
A: 147

Q: What about the Locomotor activity [20] of the same molecule?
A: 1297

Q: And the Ki [21]?
A: 0.3 nM

Q: And the Locomotor activity [22]?
A: 60

Q: What about the Locomotor activity [23] of the same molecule?
A: 1549

Q: And the Locomotor activity [24]?
A: 1092

Q: What about the Ki [11] of the same molecule?
A: 3 nM

Q: What about the Locomotor activity [25] of the same molecule?
A: 141

Q: And the ED50 [26]?
A: 0.002 µmol/kg

Q: And the Locomotor activity [27]?
A: 61

Q: What about the Locomotor activity [28] of the same molecule?
A: 54
